{
  "source": "patent US6284468A",
  "about": "“Composition and methods for determining the activity of DNA-binding proteins and of initiation of trascription” (Dnab Diagnostics, Inc., priority 2000, dated 2001)",
  "key": {"[1]": {"molecular_target": "T1, Escherichia coli RNA polymerase (Escherichia coli, UniProt P0A8V2)", "T1 construct": "purchased Pharmacia, Uppsala, Sweden", "assay": "Binding of RNA polymerase to the promoter sequence (protection of pDNAB-tac from BseRI cleavage, before addition of ribonucleotide triphosphates)", "settings": "various concentrations of rifampicin, FIG. 14", "procedure": "The following experiment was conducted to measure the DNA-binding activity of RNA polymerase to its cognate nucleotide recognition sequence. The incubation buffer contained 50 mM tris HCI (pH 8), 5 mM MgCl2, 100 mM potassium glutamate, and 3, μg of pDNABtac DNA in 60 μL final volume. One to 9 units of RNA polymerase (Boehringer-Mannheim, Mannheim, Germany) were added and, after preincubation at 37° C. for 5 minutes, the reaction was cooled to 31° C.\nIn order to measure the inhibition of the initiation of transcription, the effect of various concentrations of rifampicin on the de-protection of the BseRI site was measured. Rifampicin is an antibiotic used in the therapy of bacterial infections (e.g. tuberculosis) and it specifically targets bacterial RNA polymerase, by inhibiting its transcription activity. […] After 5 minutes of incubation, rifampicin and BseRI were added and the amount of uncleaved plasmid was measured after 20 minutes of incubation at 37° C. The 4 ribonucleotide triphosphates were then added and the amount of uncleaved plasmid was measured again after 20 more minutes of incubation at 37° C.\nThe white bars represent the fluorescence units (i.e. the amount of uncleaved plasmid) before the addition of the 4 ribonucleoside triphosphates, while the hatched bars represent the fluorescence units left after addition of the 4 ribonucleotide triphosphates."}, "[2]": {"molecular_target": "T1, Escherichia coli RNA polymerase", "assay": "Inhibition of initiation of transcription (de-protection of BseRI site of plasmid pDNAB-tac, ethidium bromide fluorescence)", "assay_type": "biochemical", "procedure": "In order to measure the initiation of transcription RNA polymerase was added to 0.5 μg of pDNAB-tac plasmid following the same procedure described above for the measurement of DNA-binding activity. The 4 ribonucleotide triphosphates (ATP, CTP, GTP and UTP) were then added to the reaction mixture followed by BseRI and the amount of CCC DNA left was measured after 20 minutes using ethidium bromide fluorescence as in Example 1. In the presence of the 4 ribonucleotide triphosphates the RNA polymerase starts polymerizing an RNA molecule and it moves away from the promoter sequence, thereby de-protecting the BseRI cleavage site. Cleavage at this site can take place then.\nIn order to measure the inhibition of the initiation of transcription, the effect of various concentrations of rifampicin on the de-protection of the BseRI site was measured. […] After 5 minutes of incubation, rifampicin and BseRI were added and the amount of uncleaved plasmid was measured after 20 minutes of incubation at 37° C. The 4 ribonucleotide triphosphates were then added and the amount of uncleaved plasmid was measured again after 20 more minutes of incubation at 37° C. […]\nThe relative effects of rifampicin on transcription was quantitated using the formula [formula] […]"}},
  "data": [
    {"smiles": "CO[C@H]1/C=C/O[C@@]2(C)Oc3c(C)c(O)c4c(O)c(c(/C=N/N5CCN(C)CC5)c(O)c4c3C2=O)NC(=O)/C(C)=C\\C=C\\[C@H](C)[C@H](O)[C@@H](C)[C@@H](O)[C@@H](C)[C@H](OC(C)=O)[C@@H]1C", "note": "[rifampicin]", "values": [
      {"measurement": "inhibition of the binding of RNA polymerase to the promoter sequence", "setting": "[1]", "value": "not of the binding of RNA polymerase to the promoter sequence"},
      {"measurement": "Ki", "setting": "[2]; Michaelis-Menten fit of % inhibition, rifampicin 0.2 μM to 3.2 μM, plasmid pDNAB-tac, 37° C., read-out: apparent Ki of rifampicin (inhibition of initiation of transcription activity)", "value": 2.8, "unit": "µM"},
      {"measurement": "inhibition of the transcription initiation activity", "setting": "[2]; various concentrations of rifampicin, with the 4 ribonucleotide triphosphates, FIG. 14", "value": "dose-dependent inhibition"}
    ]}
  ]
}
